According to patent US20250295646A1, “METHODS OF USE OF T-TYPE CALCIUM CHANNEL MODULATORS” (Praxis Precision Medicines, Inc., priority 2022, published 2025):
Where two headings read alike, the source gives them in different places.

Assays:
[1] = Food effect (high-fat, high-calorie meal) on pharmacokinetics, single 20 mg dose; type: in vivo, human; details: for Tmax / AUC(0-t) / AUC(0-inf) / Cmax: human, plasma, 20 mg; for Tmax: oral, single 20 mg; for AUC(0-t) / AUC(0-inf) / Cmax: po
Description: The effect of a high-fat, high-calorie meal on the pharmacokinetics of a compound of formula (II) was evaluated in an open-label, sequential fashion following a single 20 mg dose of formulation 5 in participants who had previously received a 20 mg dose of formulation 5 under fasted conditions.

gamma band EEG power = assay: qEEG: eyes open / eyes closed gamma band power; type: in vivo, human; details: Part B, beginning at 60 mg through 120 mg
From the text: It appears a maximal effect in gamma reduction was not achieved.
The eyes open (EO) and eyes closed (EC) gamma absolute power for each individual was also estimated at specific time points across the study days.
The population PK model was used to generate Cave for NREM sigma absolute power and concentrations for EO and EC gamma absolute power. For NREM sigma absolute power, the Cave was computed for the final day of each dose level over the EEG collection interval. For EO and EC gamma absolute power, concentrations at 4 hours post-dose and 23.75 hours post-dose were generated on the final day of each dose level. The final population PKPD models for NREM sigma absolute power and EO and EC gamma absolute power were then used to generate corresponding EEG responses.

[2] = Phase 1 SAD/MAD safety and tolerability of formulation 3; type: in vivo, human; details: single 60 mg without titration, 6 healthy volunteers
Description: This was a 2-part, Phase 1 double blind, placebo controlled trial to assess the safety, tolerability, pharmacokinetics, and pharmacodynamics (including the KSS, the KDT, the SQSQ and 24-hour EEG recordings), of single, ascending (Part A: 20, 40, and 60 mg) and multiple, ascending (Part B: 20 and 40 mg for 8 days) doses of the 20 mg tablet (formulation 3) in healthy participants. […] Variability in Cmax and AUC increased with increasing dose following a single oral dose of the 20 mg tablet formulation (formulation 3) (FIG. 16).
Adverse events for the doses of 20 and 40 mg were transient and occurred at a rate similar to placebo. The following TEAEs were observed, all of which were mild to moderate: […]

[3] = system: adult patients with essential tremor; assay: Essential tremor trial Example 16 Part B randomized withdrawal phase: TETRAS, mADL, ADL efficacy; type: in vivo, human; design: TETRAS mADL Mean CFB (SD): unit not given here; details: for TETRAS ADL LS Mean CFB / TETRAS CULS LS Mean CFB / TETRAS PS Item 6: Archimedes Spiral (Left) LS Mean CFB / TETRAS PS Item 6: Archimedes Spiral (Right) LS Mean CFB / TETRAS PS Item 7: Handwriting LS Mean CFB / TETRAS PSTS LS Mean CFB / TETRAS ULS LS Mean CFB / TETRAS mADL LS Mean CFB: change from randomization baseline; for TETRAS ADL Mean CFB (SD) / TETRAS CULS CTA (%) / TETRAS PS Item 6: Archimedes Spiral (Left) CTA (%) / TETRAS PS Item 6: Archimedes Spiral (Right) CTA (%) / TETRAS PS Item 7: Handwriting CTA (%) / TETRAS PSTS CTA (%) / TETRAS ULS CTA (%) / TETRAS mADL Mean CFB (SD): from randomization baseline
Description: A two part trial (Part A and Part B as described below) was conducted to study the efficacy, safety, tolerability, and pharmacokinetics of the compound of formula (I) in adult patients with essential tremor (ET).
Participants were males and females ages 18 and older with a clinical diagnosis of ET. Participants who have a history of any other medical, neurological, or psychiatric condition that may explain or cause tremor were excluded. Participants who have previously received treatment with formula (I) in any clinical trial (including Part A of the current trial for participants enrolling in Part B) were also excluded.
In Part B, an open label titration phase and a randomized, double-blind, placebo-controlled trial was conducted.

[4] = Example 16 Part B: treatment emergent adverse events, down-titration, discontinuation
From the text: Patients were scheduled for Safety Follow-up on Day 70 (±1 day) in the clinic for the final clinical trial assessment.

[5] = Formula (I) group, Day 70 follow-up
[6] = Part B - RWD, RWAS, Formula (I) group, Day 56
[7] = Part B - RWD, RWAS, Formula (I) group, Day 70
[8] = Part B - RWD, RWAS, Formula (I) group, Randomization Baseline (Day 42 post-dose value)
[9] = Part B RWD, Formula (I) group, Day 56
[10] = Part B Randomized Withdrawal (N = 11), arm (Formula (I) or placebo) not stated
[11] = Part B, reported by the same patient

## CC(C)(C)NC(=O)CN1CCC(CNC(=O)c2cc(F)cc(Cl)c2)CC1.Cl [compound of formula (II), N-((1-(2-(tert-butylamino)-2-oxoethyl)piperidin-4-yl)methyl)-3-chloro-5-fluorobenzamide hydrochloride]
[1]; fasted
  Tmax: 4 h
[1]; high-fat, high-calorie meal
  Tmax: 5 h
[1]; single 20 mg oral dose, fasted, read-out: AUClast, Fasted Geometric Mean (Adjusted)
  AUC(0-t): 905 ng·h/mL
[1]; single 20 mg oral dose, fasted, read-out: AUC∞, Fasted Geometric Mean (Adjusted)
  AUC(0-inf): 942 ng·h/mL
[1]; single 20 mg oral dose, fasted, read-out: Cmax, Fasted Geometric Mean (Adjusted)
  Cmax: 43.6 ng/mL
[1]; single 20 mg oral dose, high-fat/high-calorie meal, read-out: AUClast, Fed Geometric Mean (Adjusted)
  AUC(0-t): 1040 ng·h/mL
[1]; single 20 mg oral dose, high-fat/high-calorie meal, read-out: AUC∞, Fed Geometric Mean (Adjusted)
  AUC(0-inf): 1080 ng·h/mL
[1]; single 20 mg oral dose, high-fat/high-calorie meal, read-out: Cmax, Fed Geometric Mean (Adjusted)
  Cmax: 64.7 ng/mL
[1]; single 20 mg oral dose
  AUClast Ratio (fed/fasted): 1.14
  AUC∞ Ratio (fed/fasted): 1.15
  Cmax Ratio (fed/fasted): 1.49
Gamma band EEG power
  gamma band EEG power: dose-related reduction

## CC(C)(C)NC(=O)CN1CCC(CNC(=O)c2cc(F)cc(Cl)c2)CC1 [compound of formula (I), N-((1-(2-(tert-butylamino)-2-oxoethyl)piperidin-4-yl)methyl)-3-chloro-5-fluorobenzamide]
[2]
  tolerability: not tolerated
[3]; [5]
  TETRAS ADL score, LS mean change from randomization baseline (Day 42): 3.267
  TETRAS combined upper limb score, LS mean change from randomization baseline (Day 42): 3.156
  increase in combined upper limb tremor amplitude: 28.1%
  increase in upper limb tremor amplitude: 27.2%
  mADL score, LS mean change from randomization baseline (Day 42): 4.353
[3]; Formula (I) group, Day 70 follow-up (2 weeks after cessation)
  TETRAS upper limb score, LS mean change from randomization baseline (Day 42): 1.653
[3]; Part B - RWD, RWAS, Day 56
  TETRAS ADL LS Mean Difference: Formula (I) - Placebo (95% CI): −9.578 (−18.9020, −0.2546)
  TETRAS CULS LS Mean Difference: Formula (I) - Placebo (95% CI): −1.896 (−8.7365, 4.9451)
  TETRAS PSTS LS Mean Difference: Formula (I) - Placebo (95% CI): −3.025 (−11.2090, 5.1595)
  TETRAS ULS LS Mean Difference: Formula (I) - Placebo (95% CI): −0.253 (−4.9188, 4.4129)
  TETRAS mADL LS Mean Difference: Formula (I) - Placebo (95% CI): −8.439 (−15.3856, −1.4916)
[3]; Part B - RWD, RWAS, Day 70
  TETRAS ADL LS Mean Difference: Formula (I) - Placebo (95% CI): −5.988 (−16.8132, 4.8377)
  TETRAS CULS LS Mean Difference: Formula (I) - Placebo (95% CI): −0.964 (−6.5938, 4.6660)
  TETRAS PSTS LS Mean Difference: Formula (I) - Placebo (95% CI): −1.277 (−7.5286, 4.9741)
  TETRAS ULS LS Mean Difference: Formula (I) - Placebo (95% CI): −0.316 (−3.3765, 2.7441)
  TETRAS mADL LS Mean Difference: Formula (I) - Placebo (95% CI): −3.236 (−12.3264, 5.8538)
[3]; [6]
  TETRAS ADL LS Mean CFB: 0.877
  TETRAS CULS LS Mean CFB: 1.525
  TETRAS PS Item 6: Archimedes Spiral (Left) LS Mean CFB: 0.394
  TETRAS PS Item 6: Archimedes Spiral (Right) LS Mean CFB: 0.087
  TETRAS PS Item 7: Handwriting LS Mean CFB: 0.037
  TETRAS PSTS LS Mean CFB: 1.174
  TETRAS ULS LS Mean CFB: 0.716
  TETRAS mADL LS Mean CFB: 1.350
  TETRAS ADL Mean CFB (SD): 5.84 (16.276)
  TETRAS CULS CTA (%): 14.7%
  TETRAS PS Item 6: Archimedes Spiral (Left) CTA (%): 36.5%
  TETRAS PS Item 6: Archimedes Spiral (Right) CTA (%): 9.5%
  TETRAS PS Item 7: Handwriting CTA (%): 4.2%
  TETRAS PSTS CTA (%): 8.1%
  TETRAS ULS CTA (%): 12.8%
  TETRAS mADL Mean CFB (SD): 8.45 (34.208)
[3]; [7]
  TETRAS ADL LS Mean CFB: 3.267
  TETRAS CULS LS Mean CFB: 3.156
  TETRAS PS Item 6: Archimedes Spiral (Left) LS Mean CFB: 0.384
  TETRAS PS Item 6: Archimedes Spiral (Right) LS Mean CFB: 0.353
  TETRAS PS Item 7: Handwriting LS Mean CFB: 0.189
  TETRAS PSTS LS Mean CFB: 3.422
  TETRAS ULS LS Mean CFB: 1.653
  TETRAS mADL LS Mean CFB: 4.353
  TETRAS ADL Mean CFB (SD): 18.73 (24.838)
  TETRAS CULS CTA (%): 28.1%
  TETRAS PS Item 6: Archimedes Spiral (Left) CTA (%): 35.8%
  TETRAS PS Item 6: Archimedes Spiral (Right) CTA (%): 33.4%
  TETRAS PS Item 7: Handwriting CTA (%): 19.6%
  TETRAS PSTS CTA (%): 21.8%
  TETRAS ULS CTA (%): 27.2%
  TETRAS mADL Mean CFB (SD): 87.71 (126.281)
[3]; [8]
  TETRAS ADL, Mean: 22.17
  TETRAS CULS, Mean: 19.33
  TETRAS PS Item 6: Archimedes Spiral (Left), Mean: 1.75
  TETRAS PS Item 6: Archimedes Spiral (Right), Mean: 1.75
  TETRAS PS Item 7: Handwriting, Mean: 1.75
  TETRAS PSTS, Mean: 22.83
  TETRAS ULS, Mean: 10.25
  TETRAS mADL (TETRAS modified total score), Mean: 12.17
[3]; Part B RWD, Day 56
  TETRAS ADL score, LS mean difference (Formula (I)—Placebo): −9.578
  TETRAS combined upper limb score, LS mean difference (Formula (I)—Placebo): −1.896
  TETRAS upper limb score, LS mean difference (Formula (I)—Placebo): −0.253
  mADL total score, LS mean difference (Formula (I)—Placebo): −8.439
[3]; [9]
  TETRAS ADL score, LS mean change from randomization baseline (Day 42): 0.877
  TETRAS combined upper limb score, LS mean change from randomization baseline (Day 42): 1.525
  TETRAS upper limb score, LS mean change from randomization baseline (Day 42): 0.716
  increase in combined upper limb tremor amplitude: 14.7%
  increase in upper limb tremor amplitude: 12.8%
  mADL total score, LS mean change from randomization baseline (Day 42): 1.350
[4]; Part B
  TEAE associated with discontinuation: Confusional state: 1
  TEAE associated with discontinuation: Cyst: 1
  TEAE associated with discontinuation: Disturbance in attention: 1
  TEAE leading to down titration: Confusional state: 1
  TEAE leading to down titration: Disturbance in attention: 1
  TEAE leading to down titration: Dizziness postural: 1
  TEAE leading to down titration: Paraesthesia: 1
  TEAE leading to down titration: Somnolence: 1
  participants who discontinued administration: three of 14 participants
  participants who down-titrated: Four of 14 participants
[4]; Part B Open Label (N = 14)
  TEAE Anxiety, participants: 1
  TEAE Cognitive Disorder, participants: 1
  TEAE Constipation, participants: 6
  TEAE Dizziness, participants: 4
  TEAE Fatigue, participants: 3
  TEAE Headache, participants: 1
  TEAE Insomnia, participants: 2
  TEAE Paraesthesia, participants: 2
[4]; [10]
  TEAE Fatigue, participants: 1
  TEAE Headache, participants: 1
[4]; Part B, essential tremor patients
  dosing well-tolerated with titration: up to 120 mg
[4]; [11]
  TEAE associated with discontinuation: Gait disturbances: 1
  TEAE associated with discontinuation: Hypotension: 1
  TEAE associated with discontinuation: Muscle fatigue: 1
  TEAE associated with discontinuation: Speech disorder: 1
